Assay results taken from patent US11014884B2 (Global Blood Therapeutics, Inc., priority 2018, dated 2021).

Assays:
[1] = Pharmacokinetics in rats following 10 mg/kg oral administration; assay type: in vivo; conditions: Sprague-Dawley, rat, PO 10 mg/kg
Description: The pharmacokinetic (PK) profile of Compound 2 was characterized in Sprague-Dawley rats following oral administration of 10 mg/kg. Blood and plasma samples were serially collected from each animal up to 240 h post-dose and analyzed for their concentrations using LC/MS. The analytical range was 100 to 100,000 ng/ml for both plasma and blood samples. Blood and plasma concentrations of Compound 2 were analyzed by non-compartmental analysis using Phoenix WinNonlin software (version 6-4; Pharsight Inc., Cary, N.C., USA) to obtain pharmacokinetic parameters, including half-life (T½) and area under the curve (AUC). AUClast refers to the area under the curve calculated from t=0 to the last detectable time-point. Blood to plasma concentration ratio was calculated from a ratio of AUClast in blood divided by AUClast in plasma.
Blood pharmacokinetic parameters in rat were determined in individual animals and reported as mean.

[2] = target: T1, Human CO-HbS (Homo sapiens, UniProt P69905); assay: Crystallography of CO-liganded HbS with compound; conditions: CO-HbS 0.8 mM, compound 1 mM
T1 construct: Purified HbS was prepared from blood using a combination of gel filtration and anion exchange chromatography; from tissue; host or cells: blood
T1 sequence (P69905 2-142 limits assumed): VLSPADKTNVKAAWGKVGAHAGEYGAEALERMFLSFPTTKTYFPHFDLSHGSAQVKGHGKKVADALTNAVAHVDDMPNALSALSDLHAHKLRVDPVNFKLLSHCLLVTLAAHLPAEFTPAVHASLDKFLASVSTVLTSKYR
Description: Purified HbS was prepared from blood using a combination of gel filtration and anion exchange chromatography. Following preparation, the purified HbS solution was concentrated to 1 mM in a volume of 1 mL using a Vivaspin 20 concentrator (GE healthcare) via centrifugation at room temperature in an Eppendorf 5810 R centrifuge. The concentrated HbS solution was then buffer exchanged into potassium phosphate buffer by mixing 1 mL of concentrated HbS solution with 20 mL of 1.8 M potassium phosphate buffer, pH 7.4 and re-concentrating back to 1 mL using a Vivaspin 20. This process was repeated twice and aliquots of the resulting HbS solution were flash frozen using liquid nitrogen and stored at −80° C. To prepare HbS-CO, purified HbS was first saturated with CO for five hours before it was buffer exchanged into 20 mM Hepes buffer, pH 7.4, and concentrated to 3 mM.
Human CO-HbS was crystallized using sitting drop vapor diffusion method. Freshly prepared CO-HbS at 0.8 mM and buffered with 20 mM HEPES pH 7.4 was mixed with compounds (specifically, Compound 1 and Compound 2) at a final concentration of 1 mM. […] The appearance of hemoglobin crystals was monitored visually and microscopically every 48-72 hours after beginning of the experiments. […]

[3] = target: T2, hemoglobin (Homo sapiens, UniProt P69905); assay: Whole blood assay: oxygen equilibrium curves (Hemox Analyzer), change in p50; assay type: cell-based; conditions: whole blood 20% Hct (1 mM Hb), compound 1 mM, equimolar to hemoglobin, 1 h at 37° C.
T2 construct: from tissue; host or cells: whole blood (red blood cells)
T2 sequence (P69905 2-142 limits assumed): as above
T2 sequence (P68871 2-147 partner limits assumed): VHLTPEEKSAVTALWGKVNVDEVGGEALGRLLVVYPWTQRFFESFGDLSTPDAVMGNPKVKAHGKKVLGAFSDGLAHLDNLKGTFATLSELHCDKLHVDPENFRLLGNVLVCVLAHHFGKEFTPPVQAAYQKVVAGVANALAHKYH
Description: Oxygen equilibrium curves (OECs) were collected using a TCS Hemox Analyzer (TCS Scientific Company, New Hope, Pa., USA) to measure changes in the binding affinity of 02 to Hb. Whole blood was incubated for 1 h at 37° C. with the indicated compounds in an equimolar ratio of hemoglobin to compound and diluted into TES (2-[[1,3-dihydroxy-2-(hydroxymethyl)propan-2-yl]amino]ethanesulfonic acid)/saline buffer prior to measurements. For example, for whole blood at 20% hematocrit [Hct], which corresponds to 1 mM Hb, a compound concentration of 1 mM was used (for example, for compounds 1-53), and the incubated sample diluted 50- to 100-fold. The concentration for compound 54 was 1.7 mM and in equimolar ratio to hemoglobin. The diluted samples were then oxygenated with compressed air within the Hemox Analyzer, and the OECs were collected during deoxygenation as previously described (Guarnone et al., Haematologica, 1995, 80, 426-430). p50 (partial pressure of 02 at which Hb is 50% saturated with 02) values were obtained using a non-linear regression analysis. Percentage change in p50 [Δp50(%)] was calculated as follows: Δp50(%)=[(p50 of control)−p50 with compound)/p50 control]×100.

Row | Structure (SMILES) | blood plasma ratio ([1]; blood and plasma, AUClast in blood divided by AUClast in plasma) | AUC(0-t) ([1]; whole blood, blood, 0.5% MC, mean of N=3) | half-life ([1]; whole blood, blood, 0.5% MC, mean of N=3, read-out: T½ (converted)) | binding sites on hemoglobin (crystal structure) [2] | Delta-p50 (%) [3]
1 | O=Cc1ccccc1C(=O)N1CCCC[C@H]1COc1cccc(O)c1C=O [Compound 2, 2-{[(2S)-1-(2-formylbenzoyl)piperidin-2-yl]methoxy}-6-hydroxybenzaldehyde] | 937 | 239 µg·h/mL | 187 h | two distinct areas of hemoglobin | 78.3%
2 | O=Cc1c(O)cccc1OC[C@@H]1CCCCN1C(=O)c1cccc(O)c1C=O [Compound 1, 2-[(2S)-2-[(2-formyl-3-hydroxyphenoxy)methyl]piperidine-1-carbonyl]-6-hydroxybenzaldehyde] | – | – | – | two distinct areas of hemoglobin | 75.8%
